As usually defined, the MIC is the smallest concentration in the dilution series that meets the test's criterion for growth inhibition.

We go through 1 molecule from PMC10740499, “Benzodioxane–Benzamides as FtsZ Inhibitors: Effects of Linker’s Functionalization on Gram-Positive Antimicrobial Activity” (Antibiotics, 2023).

In one data set the test system is MDRSA 11.7. Nature of the data set: MIC, broth dilution, MDRSA 11.7. The class given is cell-based, Staphylococcus aureus. Conditions: Staphylococcus aureus, MDRSA 11.7 clinical isolate. An excerpt: (§1) As described in our previous work, we evaluated all the compounds mentioned above on different S. aureus strains. We tested on both methicillin-sensitive S. aureus (MSSA, ATCC29213) and two clinical isolates of S. aureus showing multi-drug resistance (MDRSA). […] We analyzed the MICs and, if the antibacterial activity was promising, we also determined the percentage of cytotoxicity using the MTT assay on human MRC-5 cells and reported it as TD90. The results of antibacterial properties of all of the synthesized derivatives are shown in Table 1, and they are compared with their reference compounds FZ14, FZ88, and FZ100.
(§2) The detailed protocol is identical to what was previously reported. Briefly, the antimicrobial testing of compounds followed the Clinical and Laboratory Standards Institute and European Committee for Antimicrobial Susceptibility Testing guidelines. A bacterial suspension equivalent to 0.5 McFarland turbidity standard was diluted in cation-adjusted Mueller Hinton broth to prepare a fresh bacterial culture of 10^5 CFU/mL. Compounds dissolved in DMSO were combined with the bacteria and incubated for 20 h at 35 °C. MIC values were determined visually as the lowest compound dilution with no turbidity. MICs were determined against methicillin-sensitive and methicillin-resistant S. aureus strains (11.7 and 12.1). Every assay was performed in triplicate, and for each series of experiments, both positive (tetracycline) and negative (no compounds) controls were included.
In general terms: Broth dilution looks for growth in wells or tubes with falling amounts of substance.

The test system of a further data set is human MRC-5 cells. Nature of the data set: MTT cytotoxicity assay. The data set is classed as cell-based. Conditions: MRC-5, MTT assay.
Source text: as §1
Normal human lung fibroblasts (MRC-5) were grown in Dulbecco’s Modified Eagle’s medium (DMEM) supplemented with 10% heat-inactivated fetal calf serum (FCS), 100 U/mL penicillin, and […] streptomycin.
Compounds showing promising antibacterial activity were serially diluted in DMEM and tested for cytotoxicity on MRC-5 cells using the MTT assay (Sigma, St Louis, MO, USA), following the same protocol we previously reported.
A general note: Tetrazolium dyes change colour on reduction, which living cells bring about.

In a further data set the test system is MDRSA 12.1. Nature of the data set: MIC, broth dilution, MDRSA 12.1. Particulars: Staphylococcus aureus, MDRSA 12.1 clinical isolate. The data set is classed as cell-based, Staphylococcus aureus.
Source text: as §1, §2

For data set [1], the system named is B. subtilis strain WM5126. Nature of the data set: Spot viability assay on solid medium. The data set is classed as cell-based, Bacillus subtilis. Conditions: more potent compounds, Figure 4A. From the text:
(§3) We further evaluated the most promising compounds on B. subtilis, a model Gram-positive species used previously in evaluating other benzamides, including by our research group. The B. subtilis strain WM5126 expresses a xylose-inducible GFP-tagged ZapA protein. […] We first tested the effects of the compounds on colony viability on solid medium (Figure 4). […] MIC values from microdilution experiments, shown in the right column in Figure 4, largely mirrored the spot viability data.
(§4) The B. subtilis strain used was WM5126 (JH642 amyE::Pxyl-gfp-zapA). For spot viability assays on plates, compounds were diluted from DMSO stocks into molten LB agar and mixed well before solidifying. To assess viability, cells were grown until the early log phase, and then 10-fold serial dilutions of the culture in LB were spotted onto LB agar plates containing the indicated final concentration of the compounds. The plates were incubated overnight at 30 °C and photographed. Microdilution assays to obtain MICs were performed essentially as described for E. coli.

Data set [2] deals with B. subtilis strain WM5126. The data set is described as follows: MIC from broth microdilution. The class given is cell-based, Bacillus subtilis. Particulars: Bacillus subtilis.
Source text: as §3, §4

In data set [3] the test system is FtsZ rings in live B. subtilis WM 5126 cells expressing GFP-ZapA. Nature of the data set: GFP-ZapA fluorescence microscopy of FtsZ assembly. The data set is classed as cell-based, Bacillus subtilis. Particulars: 0.3 µg/mL (0.8 µM), 90 min. Here is the method:
To test if the differential effects of FZ116 and FZ117 enantiomers could be detected as FtsZ assembly changes in B. subtilis cells, we visualized GFP-ZapA patterns after growth in inhibitory concentrations of FZ116 and FZ117 (0.3 µg/mL or 0.8 µM). Cells grown with no added compound grew as typical single bacilli and short chains, with well- defined Z rings clearly visible (Figure 5, left panel, single yellow arrows). […] This conversion of FtsZ rings into a speckle pattern was observed previously, both with FZ100 [14] and with the original benzamide derivatives.
For fluorescence microscopy, overnight cultures of WM5126 were grown at 33 °C (after 1:200 dilution overnight and addition of 0.1% xylose to induce expression of GFP-ZapA) for ~2 h until reaching an OD600 of ~0.2 and then treated with no drug or with compounds FZ116 or FZ117 diluted in water to a final concentration of 0.3 µg/mL (0.8 µM) from stock solutions of 30 mg/mL in DMSO. After the addition of the compounds, the cultures were grown for 90 min while shaking at 33 °C prior to spotting on a thin layer of 1% agarose in phosphate-buffered saline. Cells were imaged with an Olympus BX100 fitted with a 100 × Plan Apochromat objective (N.A. 1.4) and a GFP filter set (Chroma). Images were acquired with CellSens Dimension version 2 software (Evident Corporation, Tokyo, Japan).

For data set [4], the system named is methicillin-sensitive S. aureus (MSSA, ATCC29213). Nature of the data set: MIC, broth dilution, MSSA ATCC 29213. The data set is classed as cell-based, Staphylococcus aureus. Particulars: Staphylococcus aureus.
Source text: as §1
Gram-positive methicillin-sensitive Staphylococcus aureus (MSSA, ATCC 29213) was grown in Luria–Bertani broth (LB), as already described in our papers.
as §2

Another data set concerns E. coli FtsZ. Also noted: method as in PMID 37634788. Particulars: in words; cited from earlier work.

In brackets after ≈: the same amount, converted by molar mass. Read-outs that look alike come from different tables or passages of the source.

As for `NC(=O)c1c(F)ccc(OC[C@H](O)[C@H]2COc3cc4c(cc3O2)CCCC4)c1F` (relative stereo) [FZ116], the MIC was 4.9 µM (≈ 1.99 µg/mL) against MDRSA 11.7; 4.9 µM (≈ 1.99 µg/mL) against MDRSA 12.1; less than 0.24 µg/mL in data set [2]; less than 0.6 µM in data set [2] (value in brackets); 4.9 µM (≈ 1.99 µg/mL) in data set [4] (20 h, MSSA ATCC 29213, 20 h at 35 °C, read-out: MIC); 4.9 µM (≈ 1.99 µg/mL) in data set [4] (read-out: MIC vs S. aureus). The same molecule came in with a TD90 in the data set on human MRC-5 cells of 468.7 µM. For the same molecule, the “colony viability on solid medium, in words” value in data set [1] was “killed B. subtilis at the lowest doses”. Also, in data set [3], the “FtsZ ring / GFP-ZapA pattern” value is listed as “largely disrupted”. In addition, in the data set on E. coli FtsZ, the “in vitro inhibition of E. coli FtsZ” value was “very strong”.
